Laboratory results from paper PMC7566913, “Dual Gene Delivery Reagents From Antiproliferative Alkylphospholipids for Combined Antitumor Therapy” (Frontiers in Chemistry, 2020).
Read-outs that look alike come from different tables or passages of the source.

Assays:
[1] = tested on: sheep RBC; details: sheep RBC, 37°C, ref Gaillard et al., 2019, cited from earlier work
[2] = tested on: 16HBE cells; parameters: method as in Gaillard et al., 2019; details: 24 h at 37°C, MTT assay, ref Gaillard et al., 2019; cited from earlier work
[3] = parameters: method as in Gaillard et al., 2019; details: ref Gaillard et al., 2019, cited from earlier work
[4] = tested on: A549 cells; experiment: Antiproliferative effect of pUNO1-hTRAIL vs pCMV-Gluc lipoplexes, MTT, A549; assay type: cell-based, human; details: N/P 3, 1 eq. DOPE, pDNA 0.3 and 0.4 μg/well
Method: Cells were treated with lipoplexes prepared from pro-APLs ME12, PE12, and EE12, with increasing dose of pDNA (0.1–0.4 μg per well). The gold standard gene delivery reagent Lipofectamine® 2000 was assayed in parallel for comparison purpose. In order to distinguish the intrinsic cytotoxic effect of the in situ generated APLs from that resulting from TRAIL expression, pCMV-Gluc was assayed in parallel to pUNO1-hTRAIL. Using pCMV-Gluc, the observed cytotoxicity was assumed to result only from the APL antiproliferative activity, whereas results obtained with pUNO1-hTRAIL are a combination of TRAIL activity and APL antiproliferative effect. […] Though the temptation is to take it as an indicator that functional TRAIL was produced, the difference found was not always statistically significant. The activity profile of the three pro-APLs varied according to the cell line. […]
Figure 8 Antiproliferative effect of lipoplexes prepared from ME12 (A), PE12 (B), EE12 (C), and the two DNA plasmids pCMV-Gluc (light bars) and pUNO1-hTRAIL (dark bars), on the three cell lines. […] Lipofectamine®-based lipoplexes (0.1 μg plasmid/well) were prepared according to the optimized experimental conditions determined following the supplier's instructions. Cell viability was measured by the MTT assay. Basal mitochondrial activity measured in untreated cells is set at 100%. […]

[5] = tested on: A549 cells; parameters: method as in Gaillard et al., 2019; details: A549, 24 h at 37°C, MTT assay; ref Gaillard et al., 2019; cited from earlier work
[6] = parameters: method as in Gaillard et al., 2019; details: pyrene fluorescence; ref Gaillard et al., 2019; cited from earlier work
[7] = parameters: method as in Gaillard et al., 2019; details: lipoplexes with pCMV-Gluc, N/P 3, 1 molar equivalent of DOPE; ref Gaillard et al., 2019; cited from earlier work
[8] = tested on: H292 cells; parameters: method as in Gaillard et al., 2019; details: H292, 24 h at 37°C, MTT assay; ref Gaillard et al., 2019; cited from earlier work

CCCCCCCC/C=C\CCCCCCCCCCCCOP(=O)(OCCC[N+](C)(C)C)OCOC(=O)CCCCCCCCCCC (stereo not shown) [EE12]
HA200 (hemolytic activity at 200 μM) ([1]; 1 h): < 1% | HA200 (hemolytic activity at 200 μM) ([1]; 24 h): 18.6 ± 1.5% | IC50 [2]: 144 ± 66 µM | H120 (hydrolysis rate after a 120-h incubation period) ([3]; pH 4.5): 2% | H120 (hydrolysis rate after a 120-h incubation period) ([3]; pH 7.4): 17% | TRAIL-induced cell death [4]: 15-17% | IC50 [5]: 151 ± 42 µM | CMC (APLs) / CAC (pro-APLs) [6]: 0.6 ± 0.2 µM | Particle size of lipoplexes [7]: 141 ± 5 nm | IC50 [8]: 125 ± 26 µM
